Data taken from patent publication US20230233566A1, “INHIBITION OF BMI1 ELIMINATES CANCER STEM CELLS AND ACTIVATES ANTITUMOR IMMUNITY” (The Regents of the University of California, priority 2020, published 2023).

Columns and labels:
BMI-1 = BMI-1 (Homo sapiens, UniProt P35226); details: cell-free assay; cited from earlier work
[1] = phase 1 study; cited from earlier work
[2] = system: HNSCC lymph node metastasis; assay: Cervical lymph node metastasis by anti-PCK immunostaining; type: in vivo, mouse; details: given concurrently with PTC209 plus anti-PD1
Method: Tumor growth and cervical lymph node metastasis were examined as described before (Chen et al., 2017). Briefly, mice were sacrificed, and tongues and cervical lymph nodes were harvested immediately and the lesion surface areas were measured. For histological analysis and immunostaining, longitudinally cut tongues (dorsal/ventral) and intact lymph nodes were fixed overnight in 10% buffered formalin and paraffin-embedded. Tissue blocks were cut into 10-15 sections in 4 μm thickness and stained with hematoxylin and eosin (H&E). The SCC number was counted and areas were measured as described before (Chen et al., 2017). […] To assess lymph node metastasis, the sections of cervical lymph nodes were immunostained with anti-PCK antibodies which specifically detected epithelial tumor cells in lymph nodes (Santa Cruz, Cat #sc-8018). The percentage of lymph nodes with metastasis and their metastatic areas were measured.

CD8+ T cells = assay: Immunostaining of CD8+ T cells in HNSCC; type: in vivo, mouse
Method: (§1) The immunocomplexes were detected and visualized using related secondary antibodies conjugated with Cy2 or Cy3 (Jackson ImmunoResearch Laboratories). […] At least three sections from each HNSCC lesions were immunostained and analyzed. Tumor cells (>150) and CD8+, Ac-casp3+ and Tomato^+ cells of these tumor cell areas were counted manually in each section. The percentage of CD8+, Ac-casp3^+ and Tomato^+ cells were calculated by dividing those cells with tumor cells and averaged from the sections.

HNSCC tumor cells = assay: Anti-active caspase-3 (Ac-casp3) immunostaining of apoptosis in HNSCC; type: in vivo, mouse; details: given concurrently with PTC209 plus anti-PD1
Method: as §1

BMI1+ CSCs [3] = assay: BMI1 immunostaining of CSCs in HNSCC; type: in vivo, mouse; details: FIG. 16C-16D
HNSCC = assay: 4NQO mouse model of HNSCC: lesion area, histology, invasion grade
Method: Bmi1^CreER (JAX:010531) and R26^tdTomato (JAX:007908) mouse strains were cross-mated to generate Bmi1^CreER;R26^tdTomato. K14^CreER (JAX:005107) and Bmi1^flox/flox (JAX: 028974) mouse strains were cross-mated to generate K14^CreER; Bmi1^flox/flox. […] For induction of HNSCC, six-week-old mice were treated with drinking water containing 50 ug/ml 4NQO (Santa Cruz, Cat #256815) for 16 weeks and then given normal drinking water for tumor formation and lymph node metastasis. For lineage tracing and Bmi1 knock out studies, mice were intraperitoneally injected with tamoxifen (9 mg per 40 g body weight; Sigma-Aldrich, Cat #T5648) to activate Cre.
Cisplatin (Sigma-Aldrich, Cat #479306) was dissolved in saline. PTC209 (MedChem Express, Cat #HY-15888) was dissolved in 14% DMSO, 36% polyethylene glycol 400 (Sigma-Aldrich, Cat #202304) and 50% polypropylene glycol (Sigma-Aldrich Cat #4347). […]
Briefly, mice were sacrificed, and tongues and cervical lymph nodes were harvested immediately and the lesion surface areas were measured. […] The SCC number was counted and areas were measured as described before (Chen et al., 2017). The HNSCC invasiveness was scored based on the following criteria: showing signs of normal or epithelial dysplasia appearance (grade 1); distinct invasion, unclearness of basement membrane, drop and diffuse infiltration into the superficial portion of the muscle layer (grade 2); loss of the basement membrane, extensive invasion into deep muscle layer (grade 3). To assess lymph node metastasis, the sections of cervical lymph nodes were immunostained with anti-PCK antibodies which specifically detected epithelial tumor cells in lymph nodes (Santa Cruz, Cat #sc-8018). The percentage of lymph nodes with metastasis and their metastatic areas were measured.

BMI1+ CSCs [4] = assay: In vivo labeling and lineage tracing of Tomato+ BMI1+ CSCs; set-up: species or system mouse; details: tamoxifen 1 day prior to sacrifice, treated 4 weeks
Method: as §1

BMI1 [5] = assay: BMI1 expression in HNSCC tumors by immunostaining and Western blot; type: in vivo, mouse; details: HNSCC, FIG. 18
Method: Cells were lysed using the radioimmunoprecipitation assay (RIPA) buffer (Sigma-Aldrich, Cat #R0278) added with a cocktail of protease inhibitors (Thermo Fisher Scientific, Cat ##78430) and phosphatase inhibitors (Sigma-Aldrich, Cat #4906845001). Protein extracts were resolved on a 10% or 15% SDS polyacrylamide gel and then transferred to a polyvinylidene difluoride membrane. Membranes were blocked with 5% milk for 1 h and incubated with primary antibodies overnight at 4° C. […] The signals were detected using the Clarity Western ECL kit (Bio-Rad, Cat #1705060). […] After treatment, supernatants were collected, and the protein levels of CCL5, CXCL9, CXCL10 and CXCL11 were measured with ELISA (R&D Systems, Cat #DRN00B, DCX900, DIP100, DCX110) according to the manufacturer's instructions.

BMI1 [6] = assay: Western blot of BMI1 and H2AUb in SCC23 and SCC1 cells; type: cell-based, human
Method: Human SCC23 and SCC1 cells were grown in DMEM containing 10% FBS and antibiotics (streptomycin and penicillin) at 37° C. in a 5% CO2 atmosphere. To generate lentiviruses, scramble control (shCtrl, Addgene, Cat #1864; see Sarbassov et al Science 2005 Feb. 18; 307(5712):1098-101) and BMI1 specific shRNA lentiviral plasmids (shBmi1, Sigma-Aldrich, Cat #TRCN0000020156, comprising […], SEQ ID NO:35) were transfected into HEK293T cells with two helper plasmids psPAX2 (Addgene, Cat #12260) and pMD2.G (Addgene, Cat #12259). Viral supernatant was harvested 72 h after transfection and passed through a 0.45 μm filter to remove cell debris and live cells. Collected lentiviruses were used directly to infect cells with the addition of polybrene (Sigma-Aldrich, Cat #H9268), or frozen at −80° C. for later use. […]
Cells were lysed using the radioimmunoprecipitation assay (RIPA) buffer (Sigma-Aldrich, Cat #R0278) added with a cocktail of protease inhibitors (Thermo Fisher Scientific, Cat ##78430) and phosphatase inhibitors (Sigma-Aldrich, Cat #4906845001). […] The signals were detected using the Clarity Western ECL kit (Bio-Rad, Cat #1705060). […] After treatment, supernatants were collected, and the protein levels of CCL5, CXCL9, CXCL10 and CXCL11 were measured with ELISA (R&D Systems, Cat #DRN00B, DCX900, DIP100, DCX110) according to the manufacturer's instructions.

pH2A.X = assay: DNA damage in SCC23 and SCC1 cells (pH2A.X, alkaline comet assay); type: cell-based, human
Method: (§2) Cells were lysed using the radioimmunoprecipitation assay (RIPA) buffer (Sigma-Aldrich, Cat #R0278) added with a cocktail of protease inhibitors (Thermo Fisher Scientific, Cat ##78430) and phosphatase inhibitors (Sigma-Aldrich, Cat #4906845001). Protein extracts were resolved on a 10% or 15% SDS polyacrylamide gel and then transferred to a polyvinylidene difluoride membrane. Membranes were blocked with 5% milk for 1 h and incubated with primary antibodies overnight at 4° C. Primary antibodies used in this study were: anti-phospho-STING (Ser366) (1:1,000; Cell Signaling Technology, Cat #19781), anti-STING (1:1,000; Cell Signaling Technology, Cat #13647), anti-phospho-TBK1 (Ser172) (1:1,000; Cell Signaling Technology, Cat #5483), anti-TBK1 (1:1,000; Cell Signaling Technology, Cat #3504), anti-phospho-IRF3 (Ser396) (1:1,000; Cell Signaling Technology, Cat #29047), anti-IRF3 (1:1,000; Cell Signaling Technology, Cat #4302), anti-BMI1 (1:1,000; Cell Signaling Technology, Cat #6964), anti-Ubiquityl-Histone H2A (Lys119) (1:1000, Cell Signaling Technology, Cat #8240), anti-phospho Histone H2A.X (Ser139) (1:1000; Cell Signaling Technology, Cat #9718), and anti-GAPDH (1:1000; Cell Signaling Technology, Cat #5174), anti-Histone H3 (1:2,000; Cell Signaling Technology, Cat #4499). The signals were detected using the Clarity Western ECL kit (Bio-Rad, Cat #1705060). To measure the protein levels of CCL5, CXCL9, CXCL10 and CXCL11, cells were treated with PTC209 or shBMI1 knockdown for 48 hr. After treatment, supernatants were collected, and the protein levels of CCL5, CXCL9, CXCL10 and CXCL11 were measured with ELISA (R&D Systems, Cat #DRN00B, DCX900, DIP100, DCX110) according to the manufacturer's instructions.
Single cell gel electrophoresis comet assays were performed using the SCGE assay Kit (Enzo Life Sciences, Cat #ADI-900-166). Following the treatment, cells were mixed with low melting point agarose at a volume ratio of 1:50, and 100 μl of aliquots were loaded onto pre-warmed slides. Slides were incubated in pre-chilled lysis solution for 1 h and then in pre-chilled alkaline solution for 1 h. Electrophoresis was run at 22 V in the TBE buffer for 30 min. Comets were stained with CYGREEN dye for 30 min and imaged. 50 individual cells at least per sample were evaluated in duplicates by the CASP Version 1.2.2 analysis tool.

cytosolic dsDNA = assay: Cytosolic dsDNA staining (PicoGreen/MitoTracker); type: cell-based, human; details: SCC23 and SCC1 cells
Method: Following the treatment, SCC23 and SCC1 cells were incubated with culture media containing PicoGreen (dsDNA stain, 200-fold dilution, Thermo Fisher Scientific, Cat #P11496) and MitoTracker ([…], 100 nM, Thermo Fisher Scientific, Cat #M7512). One hour after incubation, cells were fixed with 4% paraformaldehyde for 10 min. Cells were then washed twice with PBS and stained with DAPI (Sigma-Aldrich, Cat #D9542) and mounted with SlowFade Antifade Reagents (Thermo Fisher Scientific, Cat #536937). Staining was imaged and assessed using a Leica SP5X laser scanning confocal microscope.

[7] = system: cGAS-STING-IRF3 signaling; assay: Western blot of phosphorylated STING, TBK1, IRF3; type: cell-based, human
Method: as §2

IFNβ = assay: qRT-PCR of IFNβ mRNA; type: cell-based, human; details: SCC23 cells
Method: (§3) For qRT-PCR, total RNA was prepared using TRIzol reagent (Thermo Fisher Scientific Cat #15596026), and 1 μg of RNA was reversely transcribed with random primer (Thermo Fisher Scientific Cat #48190011), dNTP mix (Thermo Fisher Scientific, Cat #18427013), and M-MuLV Reverse Transcriptase (New England Biolabs, Cat #M0253L). The levels of mRNA were […] measured using a SYBRGreen supermix (Bio-Rad, Cat #1708880). GAPDH was used as an internal control.

[8] = system: promoters of CCL5, CXCL9, CXCL10 and CXCL11; assay: ChIP-qPCR on chemokine promoters; type: cell-based, human; details: SCC23 cells
Method: ChIP-qPCR assays were performed as previously described (Ding et al, 2013). Briefly, SCC cells were sequentially treated with dimethyl 3,3′-dithiobispropionimidate-HCl (DTBP; Cat #20665, Thermo Fisher Scientific) solution and formaldehyde, and harvested with a cell scraper. The cell pellet was lysed with ChIP lysis buffer and sonicated to generate 200-500 bp DNA fragments with a sonicator. The fragmented chromatins were immunoprecipitated with anti-BMI1 (Cell Signaling Technology, Cat #6964), anti-Ubiquityl-Histone H2A (Lys119) (Cell Signaling Technology, Cat #8240) overnight at 4° C. The precipitated DNA-chromatin products were purified with ChIP DNA clean & concentrator kit (Cat #D5205, Zymo Research) and the DNA levels were quantified by qPCR. Data is presented as the percentage of input DNA.

SCC23 cells = assay: qRT-PCR of ATM, DNA-PKcs, MRE11, JUN, FOSL1, MMP3, MMP9 in SCC23 cells; type: cell-based, human
Method: as §3

[9] = given concurrently with PTC209 plus anti-PD1

Chain of BMI-1 (P35226 whole entry, species assumed): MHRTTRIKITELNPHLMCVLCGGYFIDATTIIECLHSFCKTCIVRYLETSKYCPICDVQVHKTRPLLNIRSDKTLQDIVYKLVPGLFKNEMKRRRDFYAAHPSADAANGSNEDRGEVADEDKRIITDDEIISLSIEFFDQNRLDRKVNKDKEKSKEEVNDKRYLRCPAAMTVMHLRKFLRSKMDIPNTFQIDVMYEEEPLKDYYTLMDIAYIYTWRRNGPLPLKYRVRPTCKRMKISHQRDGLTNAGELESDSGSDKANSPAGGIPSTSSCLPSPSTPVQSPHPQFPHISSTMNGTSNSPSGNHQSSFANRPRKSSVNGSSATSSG
Chain of BMI-1 (Q06587 whole entry partner, species assumed): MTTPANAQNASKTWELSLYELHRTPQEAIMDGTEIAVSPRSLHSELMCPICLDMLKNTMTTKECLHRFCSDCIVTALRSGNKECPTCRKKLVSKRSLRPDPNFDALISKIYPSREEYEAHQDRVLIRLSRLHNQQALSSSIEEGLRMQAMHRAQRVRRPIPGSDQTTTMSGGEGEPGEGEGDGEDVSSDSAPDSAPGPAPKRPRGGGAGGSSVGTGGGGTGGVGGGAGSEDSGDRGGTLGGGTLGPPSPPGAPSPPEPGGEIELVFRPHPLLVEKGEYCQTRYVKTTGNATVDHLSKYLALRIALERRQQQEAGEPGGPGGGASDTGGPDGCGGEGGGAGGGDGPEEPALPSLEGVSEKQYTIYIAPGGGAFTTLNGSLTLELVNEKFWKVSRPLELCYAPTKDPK

Molecule: O=C1C(=Cc2cccnc2)C(=O)c2ccccc21 [PRT4165, 2-(3-pyridinylmethylene)-1H-indene-1,3(2H)-dione]
- IC50 (BMI-1): 3.9 µM

Molecule: Cc1nc2ccc(F)cc2n1-c1nc(N)c(F)c(Nc2ccc(C(F)(F)F)cc2)n1 [PTC596, 5-fluoro-2-(6-fluoro-2-methyl-1H-benzimidazol-1-yl)-N-[4-(trifluoromethyl)phenyl]pyrimidine-4,6-diamine]
- tolerability [1]: tolerable with manageable gastrointestinal side effects

Molecule: Cc1ccc(-c2ccc3c(c2)C=C(C(=O)Nc2ccc(C[N+](C)(C)C4CCOCC4)cc2)CCC3)cc1.[Cl-] [TAK779]
- lymph node metastasis of HNSCC [2]: significantly lessened the inhibition of lymph node metastasis
- CD8+ T cells infiltration in HNSCC (CD8+ T cells; [9]): significantly abrogated CD8+ T cells infiltration in HNSCC
- apoptosis in HNSCC (HNSCC tumor cells): attenuated apoptosis in HNSCC
- BMI1+ CSCs in HNSCC (strong BMI1 staining) (BMI1+ CSCs [3]): does not affect CSCs in HNSCC
- HNSCC growth (histological analysis) (HNSCC; [9]): significantly reversed the inhibition of HNSCC growth
- visible lesion areas (HNSCC; [9]): significantly restored visible lesion areas

Molecule: N.N.[Cl][Pt][Cl] [cisplatin]
- CD8+ T cell infiltration in HNSCC (CD8+ T cells; 4NQO-induced HNSCC, treated 4 weeks): did not significantly increase CD8+ T cell infiltration
- BMI1+ CSCs in HNSCC (in vivo labeling) (BMI1+ CSCs [4]): significantly enriched BMI1^+ CSCs
- Bmi1 expression in Tomato+ CSCs (MFI of BMI1 staining) (BMI1 [5]): induces Bmi1 expression in Tomato^+ CSCs
- lesion surface areas (HNSCC; 4NQO-induced HNSCC, Bmi1CreER;RosatdTomato mice, treated 4 weeks): reduced the lesion surface areas

Molecule: shBMI1: BMI1 specific shRNA lentiviral plasmids (Sigma-Aldrich, Cat #TRCN0000020156), SEQ ID NO:35 (CCGGCCTAATACTTTCCAGATTGATCTCGAGATCAATCTGGAAAGTATTAGGTTTTT)
- BMI1 and H2AUb levels (BMI1 [6]): reduced the expression of BMI1
- Olive tail moment (pH2A.X; alkaline comet assay): significantly increased the Olive tail moment in SCC23 and SCC1 cells
- pH2A.X (pH2A.X; immunostaining and Western blot): increased pH2A.X in SCC23 and SCC1 cells
- accumulation of cytosolic dsDNA (cytosolic dsDNA): induced the accumulation of cytosolic dsDNA
- phosphorylation of STING (S366), TBK1 (S172) and IRF3 (S396) ([7]; SCC1 cells): induction of phosphorylation of STING (S366), TBK1 (S172) and IRF3 (S396) in SCC1 cells
- phosphorylation of STING (S366), TBK1 (S172) and IRF3 (S396) ([7]; SCC23 cells): induction of phosphorylation of STING (S366), TBK1 (S172) and IRF3 (S396) in SCC23 cells
- IFNβ mRNA expression (IFNβ): induction of IFNβ mRNA expression in SCC23 cells
- levels of BMI1 on the promoters of CCL5, CXCL9, CXCL10 and CXCL11 [8]: reduction of BMI1 occupied on the promoters of CCL5, CXCL9, CXCL10, and CXCL11 in SCC23 cells
- levels of H2AUb marks on the promoters of CCL5, CXCL9, CXCL10 and CXCL11 [8]: reduction of H2AUb levels on the promoters of CCL5, CXCL9, CXCL10, and CXCL11 in SCC23 cells
- ATM, DNA-PKcs, and MRE11 mRNA expression (SCC23 cells): does not affect the expression of ATM, DNA-PKcs, and MRE11
- JUN, FOSL1, MMP3, and MMP9 mRNA expression (SCC23 cells): does not change the expression of JUN, FOSL1, MMP3, and MMP9 significantly
